Experimental data from BindingDB's records for doi:10.1007/s002100000340 (University of Illinois At Chicago, 2001).

How the values were obtained:
Adenosine receptor A3 = target: T1, Adenosine receptor A3 (Gallus gallus, UniProt A0A8V1ACC1)
T1 sequence (A0A8V1ACC1 whole entry): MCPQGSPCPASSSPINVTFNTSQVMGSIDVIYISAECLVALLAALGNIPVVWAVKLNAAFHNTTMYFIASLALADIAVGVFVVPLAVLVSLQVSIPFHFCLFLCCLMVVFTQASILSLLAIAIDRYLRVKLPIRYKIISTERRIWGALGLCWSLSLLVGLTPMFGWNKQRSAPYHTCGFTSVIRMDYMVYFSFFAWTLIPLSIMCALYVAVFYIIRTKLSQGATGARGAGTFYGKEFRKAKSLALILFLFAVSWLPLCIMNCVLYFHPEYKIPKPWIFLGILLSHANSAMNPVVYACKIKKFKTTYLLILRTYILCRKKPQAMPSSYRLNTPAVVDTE

Adenosine receptor A1 = target: T2, Adenosine receptor A1 (Gallus gallus, UniProt P49892)
T2 sequence (P49892 whole entry): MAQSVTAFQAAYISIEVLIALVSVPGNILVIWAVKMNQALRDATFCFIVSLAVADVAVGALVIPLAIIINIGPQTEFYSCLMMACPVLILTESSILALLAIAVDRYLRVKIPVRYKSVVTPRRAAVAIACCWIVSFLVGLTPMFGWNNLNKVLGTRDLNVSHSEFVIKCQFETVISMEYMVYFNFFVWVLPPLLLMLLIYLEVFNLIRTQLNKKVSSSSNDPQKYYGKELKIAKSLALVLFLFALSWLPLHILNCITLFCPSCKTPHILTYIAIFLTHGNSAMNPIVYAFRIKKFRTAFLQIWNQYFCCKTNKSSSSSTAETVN

Ki (Adenosine receptor A3) [nM] | Ki (Adenosine receptor A1) [nM] | Compound
3310 | – | Cc1ccc(-c2oc3ccc(Cl)cc3c(=O)c2Cl)c(OC(C)C)c1
53.3 | 11.2 | CCCn1c(=O)c2nc[nH]c2n(CCC)c1=O
990 | 3430 | CCOC(=O)C1=C(c2ccccc2)N=C(C)C(C(=O)OCC)C1/C=C/c1ccccc1 (stereo unspecified)
6.82 | 4.01 | OCC1OC(n2cnc3c(NC4CCCC4)nc(Cl)nc32)C(O)C1O (stereo unspecified) [2-(2-Chloro-6-cyclopentylamino-purin-9-yl)-5-hydroxymethyl-tetrahydro-furan-3,4-diol]
– | 74 | CNC(=O)[C@H]1O[C@@H](n2cnc3c(NCc4cccc(I)c4)nc(Cl)nc32)[C@H](O)[C@@H]1O [2-Cl-IB-MECA]
2.8 | 16.3 | CNC(=O)C1OC(n2cnc3c(NCc4cccc(I)c4)ncnc32)C(O)C1O (stereo unspecified) [3,4-dihydroxy-5-(6-{[(3-iodophenyl)methyl]amino}-9H-purin-9-yl)-N-methyloxolane-2-carboxamide]
6.79 | 6.83 | Nc1ncnc2c1ncn2[C@@H]1O[C@H](C(=O)NCc2ccccc2)[C@@H](O)[C@H]1O [B-NECA]
56.1 | – | CC(C=C[C@@]1(O)C(C)=CC(=O)CC1(C)C)=CC(=O)O [CAS_14375-45-2]
17.1 | 1.66 | OC[C@H]1O[C@@H](n2cnc3c(NC4CCCCC4)ncnc32)[C@H](O)[C@@H]1O [CHA]
36.6 | 167 | CCCn1c(=O)c2[nH]c(-c3ccc(C=CC(=O)O)cc3)nc2n(CCC)c1=O [NSC_129447]
1.13 | 0.72 | CC(Cc1ccccc1)Nc1ncnc2c1ncn2C1OC(CO)C(O)C1O (stereo unspecified) [R-N6-(2-phenylisopropyl) adenosine]

Compound | Ki (Adenosine receptor A3) [nM] | Ki (Adenosine receptor A1) [nM]
CCNC(=O)[C@H]1O[C@@H](n2cnc3c(N)ncnc32)[C@H](O)[C@@H]1O | 37.1 | 23.4
